Assay results from patent publication US20220370467A1, “USING OF A PPAR-DELTA AGONIST IN THE TREATMENT OF KIDNEY DISEASE” (Reneo Pharmaceuticals, Inc., priority 2019, published 2022).
Entries after “also recorded” stand apart in the source; their conditions may differ.

How the values were obtained:
LXRβ = molecular target: T1, LXRβ (Homo sapiens, UniProt P55055); assay: activity on nuclear receptor LXRβ
T1 sequence (P55055 1-460): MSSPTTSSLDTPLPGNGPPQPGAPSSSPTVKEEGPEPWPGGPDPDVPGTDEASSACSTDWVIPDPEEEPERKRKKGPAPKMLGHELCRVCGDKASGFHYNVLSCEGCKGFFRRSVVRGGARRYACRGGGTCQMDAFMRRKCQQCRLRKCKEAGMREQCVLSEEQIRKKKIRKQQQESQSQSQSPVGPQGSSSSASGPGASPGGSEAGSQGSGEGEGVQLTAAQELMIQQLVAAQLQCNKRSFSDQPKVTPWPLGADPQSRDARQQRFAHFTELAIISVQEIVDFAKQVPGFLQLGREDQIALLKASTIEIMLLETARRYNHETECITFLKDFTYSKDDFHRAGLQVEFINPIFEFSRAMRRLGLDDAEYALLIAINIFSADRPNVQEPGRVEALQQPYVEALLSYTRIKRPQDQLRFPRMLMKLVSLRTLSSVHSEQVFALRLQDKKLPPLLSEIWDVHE

[1] = test system: inbred 129S1 Col4a3−/− mice; assay: Mouse Alport model of kidney fibrosis, Study 2; type: in vivo
Text: (§1) Mice with mutations in one of the collagen IV genes of glomerular basement membrane collagen, Collagen IV-α3/α4/α5, have defects in glomerular function with development of kidney fibrosis. These mice develop renal dysfunction and die prematurely of renal failure with specific timing dependent on the strain background upon which the mutation is present.
Generation of Col4a3^−/−mice was as described in Miner, J. H., and Sanes, J. R. (1996), J. Cell Biol. 135:1403-1413. Studies of Compound 1 efficacy in Alport models of kidney fibrosis were performed using mice on two different strain backgrounds. Study 1 used B 6129S1 F1 hybrid Alport mice that usually reach end stage renal disease (ESRD) at about 17 to 19 weeks. These were generated by crosses between C57BL6/J (B 6) and 129S1/Sv1mJ (129S1) Alport mice. Study 2 used inbred 129S1 Col4a3^−/− mice, which usually reach ESRD at about 11 to 13 weeks. […]
(§2) Urine and blood samples were collected at the time points of 12, 15, and 17-weeks of age for B6129S1 hybrid Col4a3^+/−, −/− mice and at 8 and 10-weeks of age for inbred 129S1 Col4a3^−/− mice. Urinary protein concentration was determined by Bradford assay (Cat. 5000006, Bio-Rad) and comparison with bovine serum albumin standards. Urinary creatinine was measured by QuantiChrom™ Creatinine Assay Kit (Cat.DICT-500, BioAssay systems) and used to normalize the amount of urine. Blood urea nitrogen (BUN) levels were measured by QuantiChrom™ Urea Assay Kit (Cat.DUR2-100, BioAssay systems). Urine and blood samples were stored at −20° C. and −80° C. respectively after collection and subsequently analyzed.
For biochemistry, kidneys were collected from 15 and 17-week old B 6129S1 hybridCol4a3^+/−, −/− mice; and from 8 and 10-week old inbred 129S1 Col4a3^−/− mice. […] Protein concentration was measured by BCA assays (Cat. 23227, ThermoFisher). […]
All data are presented as mean±SEM. Statistical significance was determined by Oneway ANOVA with Dunnett's multiple comparison for more than three group comparison and Student's t test for two group comparison. […]

[2] = test system: B6129S1 hybrid Col4a3−/− mice; assay: Mouse Alport model of kidney fibrosis, Study 1; type: in vivo
Text: as §1
Generation of Col4a3^−/−mice was as described in Miner, J. H., and Sanes, J. R. (1996), J. Cell Biol. 135:1403-1413. Studies of Compound 1 efficacy in Alport models of kidney fibrosis were performed using mice on two different strain backgrounds. Study 1 used B 6129S1 F1 hybrid Alport mice that usually reach end stage renal disease (ESRD) at about 17 to 19 weeks. These were generated by crosses between C57BL6/J (B 6) and 129S1/Sv1mJ (129S1) Alport mice. Study 2 used inbred 129S1 Col4a3^−/− mice, which usually reach ESRD at about 11 to 13 weeks.
Study 1—B6129S1 hybrid Col4a3^−/− mice were given administrations via intraperitoneal injection of either vehicle (PBS) or Compound 1 (10 mg/kg) once a day from 6 to 17-weeks of age. There were 12 mice per group. B6129S1 hybrid Col4a3^+/− mice were used as non-disease controls. Compound 1 was dissolved at 2 mg/mL in PBS twice a week. The dosing volume was calculated as body weight (g)*5 μL (e.g. body weight 20 g: 20*5=100 μL).
as §2
For biochemistry, kidneys were collected from 15 and 17-week old B 6129S1 hybridCol4a3^+/−, −/− mice; and from 8 and 10-week old inbred 129S1 Col4a3^−/− mice. Collected kidneys were quickly frozen by liquid nitrogen and stored at −80° C. Kidneys were minced in cold PBS containing protease inhibitor (Cat. 786-108, G-BIOSCIENCES), centrifuged, and supernatants were removed. Tissue pellets were washed with PBS and centrifuged again. Tissue pellets were lysed with RIPA buffer containing protease inhibitor and phosphatase inhibitor (Sigma-Aldrich, Cat. P5726). Protein concentration was measured by BCA assays (Cat. 23227, ThermoFisher). The following antibodies were used in western blotting: anti-kidney injury molecule 1 (KIM1) antibody (AF1817, R&D), anti-Lipocalin2/NGAL antibody (ab70287, abcam), anti-phosho-STAT3 antibody (#9145, CST), anti-CTGFantibody (sc-365970, Santa Cruz), anti-TGFb 1,2,3 antibody (MAB1835, R&D), anti-Fibronectin antibody (F3648,Sigma), anti-alpha smooth muscle acting (SMA) antibody (F3777, Sigma), anti-Collagen I antibody (1310-01, SouthernBiotech), anti-Collagen IV antibody (1340-01, SouthernBiotech), anti-alpha Tubulin antibody (#2144, CST).
For all groups, analysis includes measurement of blood urea nitrogen and urinary albumin: creatinine ratios. The analysis also includes renal histopathology (glomerulosclerosis and tubulo-interstitial fibrosis; and analysis of glomerular basement membrane and podocyte ultrastructure. Plasma samples are analyzed for Compound 1 concentration to ensure adequate circulating levels for efficient target engagement. qRT-PCR is performed using RNA from several relevant tissues to examine expression of known transcriptional targets of PPARδ (e.g., PGC1α).
All data are presented as mean±SEM. Statistical significance was determined by Oneway ANOVA with Dunnett's multiple comparison for more than three group comparison and Student's t test for two group comparison.

[3] = 3 or 10 mg/kg i.p. once a day, samples at 8 and 10-weeks of age, data not shown
[4] = 10 mg/kg i.p., compared with vehicle-treated mice
[5] = whole kidneys, western blotting

- activity on LXRβ (LXRβ): did not show any
Structure (SMILES): Cc1cc(OC/C=C(/c2ccc(F)cc2)c2ccc(C#CCN3CCOCC3)cc2)ccc1OCC(=O)O [Compound 1, (E)-[4-[3-(4-Fluorophenyl)-3-[4-[3-(morpholin-4-yl)propynyl]phenyl]allyloxy]-2-methyl-phenoxy]acetic acid]
- kidney dysfunction ([1]; 3 or 10 mg/kg i.p. once a day from 4 to 10-weeks of age): did not attenuate
- BUN [1, 3]: did not result in any significant reduction
- proteinuria [1, 3]: did not result in any significant reduction
- kidney dysfunction ([2]; 10 mg/kg i.p. once a day from 6 to 17-weeks of age): attenuated
- blood urea nitrogen (BUN) ([2]; 10 mg/kg i.p. once a day, at 12 and 17-weeks of age): suppressed the increase
- proteinuria ([2]; 10 mg/kg i.p. once a day, at 17-weeks of age (late stage)): suppressed; also recorded: significantly reduced
- renal histology ([2]; 10 mg/kg i.p., H&E and Trichrome kidney sections): slightly improved
- extent of fibrosis [2, 4]: slightly decreased; also recorded: decreased
- necrotic regions in the cortex [2, 4]: decreased
- infiltration of inflammatory cells ([2]; 10 mg/kg i.p., microscopic examination of kidney sections): slightly reduced
- CTGF expression [2, 5]: attenuated
- Collagen I expression [2, 5]: decreased
- Collagen IV expression [2, 5]: decreased
- NGAL protein level [2, 5]: decreased
- alpha-SMA expression [2, 5]: decreased
- fibronectin expression [2, 5]: not changed
- phosho-Stat3 expression [2, 5]: attenuated
- KIM-1 protein level ([2]; whole kidneys, western blotting, vs vehicle): not changed
